Earlier results, collected in patent US6559165B1, “Methods for treating bulimia using optically pure (−) norcisapride” (priority 1998, dated 2003).

How the values were obtained:
[1] = co-administration with ketoconazole

increase of steady-state plasma levels [1]: 8 fold | portion of dose metabolized (humans, oxidative N-dealkylation or aromatic hydroxylation): More than 90% | bioavailability (oral administration to humans, rapid first-pass metabolism in the liver): 40-50%
SMILES: COc1cc(N)c(Cl)cc1C(=O)N[C@H]1CCN(CCCOc2ccc(F)cc2)C[C@H]1OC (racemic) [(±) Cisapride, cis-4-amino-5-chloro-N-[1-[3-(4-fluorophenoxy)propyl]-3-methoxy-4-piperidinyl]-2-methoxybenzamide]
